Values of other authors as cited in publication PMC5686165, “Plant-to-plant communication triggered by systemin primes anti-herbivore resistance in tomato” (Scientific Reports, 2017).

System: A. ervi
Conditions: tomato and A. ervi
Procedure: The possible biological relevance of the systemin-triggered priming was evaluated using three different types of source plants. […] The qualitative and quantitative differences in VOCs emissions were confirmed by PLSDA analysis and explain the effect on parasitoid attraction. Compared to R-S4, all receiver plants, after 24 hours of exposition to the t ...

Which “elicitation of indirect defense in inter-specific plant-to-plant communication” value does the source give for `C=C(C)CC(C)CCC` (stereo not shown) [2,4-dimethyl-1-heptene] here?
Its value is “powerful elicitor of indirect defense”.
